Measurements as given in patent US20250235543A1, “MODIFIED PROTEINS AND PROTEIN DEGRADERS” (Cullgen (Shanghai), Inc., priority 2021, published 2025).
pIC50, pKd: −log10 of the molar value.

What was measured:
[1] = system: Calu-1, NCI-H522, BT-549, Hs578T, MIA PaCa-2 or other cells; assay: Inhibition of cancer cell growth, 9-point serial dilution in 96-well plates; assay type: cell-based; conditions: 3 d treatment
DDB1 = molecular target: T1, DDB1 (Homo sapiens, UniProt Q16531, D705G/DEL396-460/DEL463-701/I704S/T703N); assay: SPR binding assay to immobilized DDB1ΔBPB; conditions: binding affinities to DDB1
T1 construct: His6 (N, cleaved yes); TEV protease cleavage site (N, cleaved yes); made in house; host or cells: SF9 insect cells, Bac-to-Bac baculovirus, pFastBacHTB vector
How it was run: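 Untagged Sf9-expressed DDB1ΔBPB (BPB domain aa 396-705 replaced by GNGNSG linker) amine-coupled to CM5 chip at 10,000-12,000 RU; 25° C, HBS-EP pH 7.4 with 5% DMSO. Compounds injected multi-cycle at 100 μM-3.125 μM (6-point two-fold); double-referenced, solvent-corrected data fit to steady-state model for Kd.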

cyclin D1 = assay: Cyclin D1 percentage degradation in Calu-1 cells (immunoblotting); assay type: cell-based; conditions: 200 nM, 16 hours
How it was run: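 Cyclin D1 degradation was assessed by western blot. Clarified lysates, obtained by RIPA lysis with inhibitors and centrifugation at 13,000 rpm, were normalized by BCA protein assay and separated by SDS-PAGE. Bands were detected with Western ECL Substrate on a Bio-Rad ChemiDoc MP Imaging system and quantified in Image Lab software to derive percentage degradation.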

Calu-1 = assay: Cell viability assay, Calu-1; assay type: cell-based; conditions: Homo sapiens, 72 h; Calu-1, NSCLC, 3 days; read-out: Cellular Anti-proliferation activity (IC50)
How it was run: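 Cells were exposed to a serial dilution of test compound for 3-6 days, or 3 days with a 9-point series for CDK4/6 inhibitors and heterobifunctional compounds. Viability was read by luminescence (CellTiter-Lumi). IC50 came from nonlinear least-squares regression of dose-response curves, reported as mean±SD.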

MDA-MB-157 = assay: Cell viability assay, MDA-MB-157; assay type: cell-based; conditions: Homo sapiens, 72 h; MDA-MB-157, TNBC, 3 days; read-out: Cellular Anti-proliferation activity (IC50)
Method: (§1) Cells were treated with CDK4/6 inhibitors palbociclib, ribociclib, or abemaciclib, or heterobifunctional compounds CPD-002 or CPD-031 following a 9-point serial dilution for 3 days.
(§2) Cells were seeded at a density of 2,000-5,000 cells per well in 96-well assay plates and treated with test compounds following a 10-point serial dilution for 3-6 days. Cell viability was determined using the CellTiter-Lumi assay kit according to the manufacturer's instructions. The dose-response curves were determined and IC50 values were calculated using the GraphPad Prism software following a nonlinear regression (least squares fit) method. Data presented was mean±standard deviation (SD) unless otherwise indicated.

MDA-MB-453 = assay: Cell viability assay, MDA-MB-453; assay type: cell-based; conditions: Homo sapiens, 72 h; MDA-MB-453, TNBC, 3 days; read-out: Cellular Anti-proliferation activity (IC50)
Method: as §1, §2

OVCAR3 = assay: Cell viability assay, OVCAR3; assay type: cell-based; conditions: Homo sapiens, OVCAR-3, 72 h; OVCAR3, OC, 3 days; read-out: Cellular Anti-proliferation activity (IC50)
Method: as §1, §2

MIA PaCa-2 = assay: Cell viability assay, MIA PaCa-2; assay type: cell-based; conditions: Homo sapiens, 72 h; MIA PaCa-2, PC, 3 days; read-out: Cellular Anti-proliferation activity (IC50)
Method: as §1, §2

[2] = system: cyclin D1, cyclin D2, cyclin D3, CDK4 and CDK6; assay: Immunoblotting of cyclin D and CDK4/6 protein levels in Calu-1 cells; assay type: cell-based; conditions: for cyclin D degradation after pretreatment with MG-132, MLN4924 or TAK-243: 2 hours pre-treatment, then 500 nM CPD-002, 500 nM CPD-004 or 100 nM CPD-031 for 4 h or 2 h; for time course of cyclin D1, cyclin D2 and cyclin D3 protein level reduction: CPD-002 at 500 nM, CPD-031 at 100 nM; for cyclin D1, cyclin D2, cyclin D3, CDK4 and CDK6 protein levels: indicated concentrations, 16 hours
Method: Calu-1 (FIG. 2A) or BT-549 (FIG. 2B) cells were treated with CPD-002, CPD-004, or palbociclib at indicated concentrations for 16 hours.
Calu-1 cells were treated with CPD-031 at indicated concentrations for 16 hours.
Calu-1 cells were treated with CPD-002 or CPD-031 at 500 nM or 100 nM, respectively for indicated period of time.
Calu-1 cells were pre-treated with DMSO, 20 μM MG-132 (MG), 5 μM MLN4924 (MLN) or 1 μM TAK-243 (TAK) for 2 hours, and subsequently incubated with 500 nM CPD-002, 500 nM CPD-004, or 100 nM CPD-031 for another 4 h or 2 h prior to immunoblotting (FIG. 5A-5B).
Calu-1 cells were treated with a dose range of negative control compounds CPD-042 or CPD-049 for 16 hours (FIG. 6A-6B).
Calu-1 cells were treated with reference compounds CP-10 or BSJ-03-123 at indicated concentrations for 8 hours.
Cultured cells were washed with cold PBS once and lysed in cold RIPA buffer supplemented with protease inhibitors and phosphatase inhibitors (Beyotime Biotechnology). The solutions were then incubated at 4° C. for 30 min with gentle agitation to fully lysed cells. Cell lysates were centrifuged at 13,000 rpm for 10 min at 4° C. and pellets were discarded. Total protein concentrations in the lysates were determined following BCA assays (Beyotime Biotechnology). Cell lysates were mixed with Laemmli loading buffer and heated at 99° C. for 5 min. Proteins were resolved on SDS-PAGE and visualized using Western ECL Substrate kits on a ChemiDoc MP Imaging system (Bio-Rad). Protein bands were quantitated using the Image Lab software provided by Bio-Rad.

T1 sequence (Q16531 other isoform, or with tags, fused parts or gaps DEL396-460/DEL463-701/T703N/I704S/D705G): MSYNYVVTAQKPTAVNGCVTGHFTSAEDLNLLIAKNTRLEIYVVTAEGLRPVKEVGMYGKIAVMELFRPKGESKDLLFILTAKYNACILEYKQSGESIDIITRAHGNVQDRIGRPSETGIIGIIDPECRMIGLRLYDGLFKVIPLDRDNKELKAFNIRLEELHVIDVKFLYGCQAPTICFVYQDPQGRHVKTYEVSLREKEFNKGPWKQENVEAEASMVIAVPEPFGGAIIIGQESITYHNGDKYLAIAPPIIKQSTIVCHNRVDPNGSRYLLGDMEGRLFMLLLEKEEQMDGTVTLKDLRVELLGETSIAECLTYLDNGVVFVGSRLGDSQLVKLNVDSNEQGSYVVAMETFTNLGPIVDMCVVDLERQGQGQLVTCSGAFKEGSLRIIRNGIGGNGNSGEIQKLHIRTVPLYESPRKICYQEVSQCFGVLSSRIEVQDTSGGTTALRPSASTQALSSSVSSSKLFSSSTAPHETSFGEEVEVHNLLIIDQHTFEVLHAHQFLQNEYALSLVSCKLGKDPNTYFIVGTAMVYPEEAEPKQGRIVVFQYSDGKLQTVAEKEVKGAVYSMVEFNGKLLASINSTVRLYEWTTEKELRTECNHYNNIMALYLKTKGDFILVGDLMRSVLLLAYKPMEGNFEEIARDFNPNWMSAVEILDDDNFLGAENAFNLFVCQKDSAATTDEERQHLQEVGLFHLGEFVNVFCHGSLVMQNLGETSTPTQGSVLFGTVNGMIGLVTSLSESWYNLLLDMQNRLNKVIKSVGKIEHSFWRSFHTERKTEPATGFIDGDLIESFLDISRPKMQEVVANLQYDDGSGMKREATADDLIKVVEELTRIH

| Structure (SMILES) | potency at inhibition of multiple cancer cell lines versus CDK4/6 inhibitors [1] | pKd (DDB1) | CyclinD1 Degradation (200 nM) (cyclin D1) | pIC50 (Calu-1) | pIC50 (MDA-MB-157) | pIC50 (MDA-MB-453) | pIC50 (OVCAR3) | pIC50 (MIA PaCa-2) | cyclin D degradation after pretreatment with MG-132, MLN4924 or TAK-243 [2] | time course of cyclin D1, cyclin D2 and cyclin D3 protein level reduction [2] | cyclin D1, cyclin D2, cyclin D3, CDK4 and CDK6 protein levels [2] |
| --- | --- | --- | --- | --- | --- | --- | --- | --- | --- | --- | --- |
| CC(=O)c1c(C)c2cnc(Nc3ccc(N4CCN(CC(=O)NCCOCCOCCOCCOCCOCCNc5ccc(C(=O)Nc6ncc(C)s6)c(C)c5)CC4)cn3)nc2n(C2CCCC2)c1=O [CPD-002, 4-((1-(4-(6-((6-Acetyl-8-cyclopentyl-5-methyl-7-oxo-7,8-dihydropyrido[2,3-d]pyrimidin-2-yl)amino)pyridin-3-yl)piperazin-1-yl)-2-oxo-6,9,12,15,18-pentaoxa-3-azaicosan-20-yl)amino)-2-methyl-N-(5-methylthiazol-2-yl)benzamide] | significantly more potent than palbociclib, ribociclib, and abemaciclib | 4.30 to 4.70 | A (protein percentage degradation >=80%) | 7.17 | 6.82 | 6.13 | 6.97 | 6.76 | diminished the cyclin D degradation effect | significantly reduced as early as one hour following treatment | reduced cyclin D1, cyclin D2, cyclin D3, CDK4 and CDK6 protein levels in a concentration-dependent manner |
| CC(=O)c1c(C)c2cnc(Nc3ccc(N4CCN(CC(=O)NCCOCCOCCOCCOCCOCCNc5ccc(C(=O)Nc6nc(C)c(C)s6)c(C)c5)CC4)cn3)nc2n(C2CCCC2)c1=O [CPD-031, 4-((1-(4-(6-((6-Acetyl-8-cyclopentyl-5-methyl-7-oxo-7,8-dihydropyrido[2,3-d]pyrimidin-2-yl)amino)pyridin-3-yl)piperazin-1-yl)-2-oxo-6,9,12,15,18-pentaoxa-3-azaicosan-20-yl)amino)-N-(4,5-dimethylthiazol-2-yl)-2-methylbenzamide] | significantly more potent than palbociclib, ribociclib, and abemaciclib | > 4.70 | A (protein percentage degradation >=80%) | 8.05 | 7.55 | 6.52 | 7.41 | 7.24 | diminished the cyclin D degradation effect | significantly reduced as early as one hour following treatment | downregulated the protein levels of cyclin D1, cyclin D2, cyclin D3, CDK4, CDK6, and downstream phosphorylated Rb in a concentration-dependent manner |
